Key:
THP-1 cells = assay: LPS-stimulation of THP-1 cells, TNF-α release; type: cell-based; settings: Homo sapiens, LPS 1 μg/ml, 6 hrs, inhibitor added 2 hrs before, read-out: Inhibitor activity versus THP-1 TNFα release
Procedure: LPS-Stimulation of THP-1 Cells
THP-1 cells were plated in 100 μl at a density of 4×10^4 cells/well in V-bottomed 96 well tissue culture treated plates and incubated at 37° C. in 5% CO2 for 16 hrs. 2 hrs after the addition of the inhibitor in 100 μl of tissue culture media, the cells were stimulated with LPS (E coli strain 005:B5, Sigma) at a final concentration of 1 μg/ml and incubated at 37° C. in 5% CO2 for 6 hrs. TNF-α levels were measured from cell-free supernatants by sandwich ELISA (R&D Systems #QTA00B)

IKBKB (IKKβ) = molecular target: T1, IKBKB (IKKβ) (Homo sapiens, UniProt O14920); assay: IKKβ enzyme assay (Z'-LYTE, Invitrogen); type: biochemical; settings: ATP at or close to Km; read-out: Inhibitor activity versus IKKβ
T1 construct: purchased Invitrogen (Paisley, UK)
T1 sequence (O14920 1-756): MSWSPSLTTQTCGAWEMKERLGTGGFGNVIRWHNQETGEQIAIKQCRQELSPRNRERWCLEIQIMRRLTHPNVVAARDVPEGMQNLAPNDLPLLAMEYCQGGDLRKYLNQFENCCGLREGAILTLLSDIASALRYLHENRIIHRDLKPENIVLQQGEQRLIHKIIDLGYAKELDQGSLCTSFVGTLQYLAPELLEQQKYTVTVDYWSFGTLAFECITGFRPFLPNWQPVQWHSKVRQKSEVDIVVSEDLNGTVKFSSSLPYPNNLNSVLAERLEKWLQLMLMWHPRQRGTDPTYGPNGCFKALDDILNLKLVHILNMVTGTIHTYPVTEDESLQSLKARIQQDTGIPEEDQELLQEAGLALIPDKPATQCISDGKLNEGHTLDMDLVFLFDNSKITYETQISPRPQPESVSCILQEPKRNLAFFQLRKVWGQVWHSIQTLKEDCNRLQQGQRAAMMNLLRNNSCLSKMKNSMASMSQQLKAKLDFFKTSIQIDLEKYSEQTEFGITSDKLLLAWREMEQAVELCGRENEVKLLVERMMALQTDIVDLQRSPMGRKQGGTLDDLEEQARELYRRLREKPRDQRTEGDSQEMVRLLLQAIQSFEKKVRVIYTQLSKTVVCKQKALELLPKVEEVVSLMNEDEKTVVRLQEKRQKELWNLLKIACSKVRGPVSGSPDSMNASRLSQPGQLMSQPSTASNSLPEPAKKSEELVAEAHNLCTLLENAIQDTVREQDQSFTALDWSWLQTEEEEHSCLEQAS
Procedure: The ability of compounds to inhibit IKKβ kinase activity was measured in an assay performed by Invitrogen (Paisley, UK). The Z′-LYTE™ biochemical assay employs a fluorescence-based, coupled-enzyme format and is based on the differential sensitivity of phosphorylated and non-phosphorylated peptides to proteolytic cleavage. The peptide substrate is labelled with two fluorophores—one at each end—that make up a FRET pair. In the primary reaction, the kinase transfers the gamma-phosphate of ATP to a single serine or threonine residue in a synthetic FRET-peptide. In the secondary reaction, a site-specific protease recognizes and cleaves non-phosphorylated FRET-peptides. Phosphorylation of FRET-peptides suppresses cleavage by the Development Reagent. Cleavage disrupts FRET between the donor (i.e., coumarin) and acceptor (i.e. fluorescein) fluorophores on the FRET-peptide, whereas uncleaved, phosphorylated FRET-peptides maintain FRET. A […] method, which calculates the ratio (the Emission Ratio) of donor emission to acceptor emission after excitation of the donor fluorophore at 400 nm, is used to quantitate reaction progress.
The final 10 μL Kinase Reaction consists of 0.9-8.0 ng IKBKB (IKKβ), 2 μM Ser/Thr 05 Peptide and ATP in 50 mM HEPES pH 7.5, 0.01% BRIJ-35, 10 mM MgCl2, 1 mM EGTA. The assay is performed at an ATP concentration at, or close to the Km. After the 60 minute Kinase Reaction incubation at room temperature, 5 μL of a 1:128 dilution of Development Reagent is added. The assay plate is incubated for a further 60 minutes at room temperature and read on a fluorescence plate reader.
Duplicate data points are generated from a ⅓ log dilution series of a stock solution of test compound in DMSO. Nine dilutions steps are made from a top concentration of 10 μM, and a ‘no compound’ blank is included. Data is collected and analysed using XLfit software from IDBS. The dose response curve is curve fitted to model number 205 (sigmoidal dose-response model). From the curve generated, the concentration giving 50% inhibition is determined and reported.

human whole blood = assay: LPS-stimulation of human whole blood, TNF-α release; type: cell-based; settings: LPS 100 ng/ml, 6 hrs, inhibitor added 2 hrs before, read-out: Inhibitor activity versus human whole blood TNFα release
Procedure: LPS-Stimulation of Human Whole Blood
Whole blood was taken by venous puncture using heparinised vacutainers (Becton Dickinson) and diluted in an equal volume of RPMI1640 tissue culture media (Sigma). 100 μl was plated in V-bottomed 96 well tissue culture treated plates. 2 hrs after the addition of the inhibitor in 100 μl of RPMI1640 media, the blood was stimulated with LPS (E coli strain 005:B5, Sigma) at a final concentration of 100 ng/ml and incubated at 37° C. in 5% CO2 for 6 hrs. TNF-α levels were measured from cell-free supernatants by sandwich ELISA (R&D Systems #QTA00B)

IC50 (THP-1 cells) [nM] | IC50 (IKBKB (IKKβ)) [nM] | IC50 (human whole blood) [nM] | SMILES
< 1000 | < 1000 | < 1000 | Cc1cc(-c2cc(C(N)=O)c(NC(N)=O)s2)ccc1/C=C/C[C@H](N)C(=O)OC1CCCC1 [Example 14, Cyclopentyl (2S,4E)-2-amino-5-{4-[4-carbamoyl-5-(carbamoylamino)-2-thienyl]-2-methylphenyl}pent-4-enoate]
1000 to 5000 | < 1000 | > 5000 | NC(=O)Nc1sc(-c2ccc(C#CC[C@H](N)C(=O)OC3CCCC3)cc2)cc1C(N)=O [Example 15, Cyclopentyl (2S)-2-amino-5-{4-[4-carbamoyl-5-(carbamoylamino)-2-thienyl]phenyl}pent-4-ynoate]
< 1000 | < 1000 | 1000 to 5000 | NC(=O)Nc1sc(-c2ccc(C[C@H](N)C(=O)OC3CCCC3)cc2)cc1C(N)=O [Example 16, Cyclopentyl 4-[4-carbamoyl-5-(carbamoylamino)-2-thienyl]-L-phenylalaninate]
1000 to 5000 | < 1000 | 1000 to 5000 | NC(=O)Nc1sc(-c2ccc(/C=C\C[C@H](N)C(=O)OC3CCCC3)cc2)cc1C(N)=O [Example 18, Cyclopentyl (2S,4Z)-2-amino-5-{4-[4-carbamoyl-5-(carbamoylamino)-2-thienyl]phenyl}pent-4-enoate]

— patent US8106091B2, “Inhibitors of IKK-beta serine-threonine protein kinase” (Chroma Therapeutics Ltd., priority 2006, dated 2012)
